Patent publication US20240269139A1, “COMPOUNDS FOR TARGETED PROTEIN DEGRADATION OF KINASES” (DANA-FARBER CANCER INSTITUTE, INC., priority 2020, published 2024)
Like-named read-outs stand apart in the source and are kept apart here.

Key:
Assay type in all cases: cell-based
[1] = target: protein kinases (human kinome) (Homo sapiens, UniProt P30291); conditions: WEE1 P30291-1; experiment wp076; degrader vs DMSO
From the text: (§1) Although development of targeted protein degraders requires a POI binder, among already-liganded proteins such as kinases, it was hypothesized that different targets would have a different propensity for current approaches to degrader-mediated destruction, which was termed ‘degradability’. […] It was rationalized that the probability of identifying the same kinase as a false positive in multiple treatments is low, therefore this analysis served to also assess the robustness of our data and subsequent interpretations. […] Overall, 62 protein kinases were degraded in more than 10 independent treatments, and remarkably, 9 of these (CDK4, AURKA, FER, WEE1, BLK. LIMK2, CDK6, GAK, LIMK1) were each degraded in at least 40 of the 154 independent treatments, emphasizing their predisposition to induced degradation (FIG. 1G; Appendix I).
(§2) Next, the frequency of degradation assessment was corrected for over-representation of molecules in the full dataset by omitting replicate profiling of compounds under different experimental conditions, to remove any bias. […] Unsurprisingly, the top degradable kinases mirror those from the previous analysis (CDK4, AURKA, FER, WEE1, BLK), confirming that in sufficiently large datasets, even with over-representation of certain molecules, frequency of degradation is a good measure of general tractability.

[2] = target: protein kinases (human kinome) (Homo sapiens, UniProt P16591)
protein kinases (human kinome) (Homo sapiens, UniProt P16591), sequence (P16591 whole entry): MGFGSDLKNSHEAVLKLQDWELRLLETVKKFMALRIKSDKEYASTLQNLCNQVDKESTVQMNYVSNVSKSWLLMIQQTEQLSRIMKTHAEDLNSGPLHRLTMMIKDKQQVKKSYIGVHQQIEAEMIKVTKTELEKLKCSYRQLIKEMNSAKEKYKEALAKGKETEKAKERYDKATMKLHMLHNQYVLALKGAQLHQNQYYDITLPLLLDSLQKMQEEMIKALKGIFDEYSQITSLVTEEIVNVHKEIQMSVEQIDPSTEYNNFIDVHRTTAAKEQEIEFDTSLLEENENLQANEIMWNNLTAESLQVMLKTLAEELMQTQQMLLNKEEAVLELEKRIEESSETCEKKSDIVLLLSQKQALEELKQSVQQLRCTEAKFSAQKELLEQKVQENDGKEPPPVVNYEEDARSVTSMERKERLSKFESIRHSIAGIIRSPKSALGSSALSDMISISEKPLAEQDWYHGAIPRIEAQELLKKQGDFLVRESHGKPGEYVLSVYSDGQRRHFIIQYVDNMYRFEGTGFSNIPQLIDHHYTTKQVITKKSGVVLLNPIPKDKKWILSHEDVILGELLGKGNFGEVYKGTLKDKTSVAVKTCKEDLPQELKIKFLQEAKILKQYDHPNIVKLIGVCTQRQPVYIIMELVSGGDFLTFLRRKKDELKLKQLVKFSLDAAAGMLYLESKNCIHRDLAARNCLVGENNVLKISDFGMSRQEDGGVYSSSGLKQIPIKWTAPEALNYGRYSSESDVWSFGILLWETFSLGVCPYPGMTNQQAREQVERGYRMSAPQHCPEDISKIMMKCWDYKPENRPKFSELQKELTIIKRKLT
From the text: as §1, §2

[3] = system: protein kinases (human kinome); conditions: for kinases the bifunctional compound degrades: as stated for the structure in the embodiments; for Kinase hits: kinases significantly downregulated vs DMSO (fold change cutoff −1.25, P-value<0.01), ≤8 h, 0.1-5 μM degrader, 7 cell lines; for Total no. kinase hits: number of degraded kinases per library compound
From the text: as §1, §2

[4] = target: T1, protein kinases (human kinome) (Homo sapiens, UniProt O14976)
T1 sequence (O14976 1-1311): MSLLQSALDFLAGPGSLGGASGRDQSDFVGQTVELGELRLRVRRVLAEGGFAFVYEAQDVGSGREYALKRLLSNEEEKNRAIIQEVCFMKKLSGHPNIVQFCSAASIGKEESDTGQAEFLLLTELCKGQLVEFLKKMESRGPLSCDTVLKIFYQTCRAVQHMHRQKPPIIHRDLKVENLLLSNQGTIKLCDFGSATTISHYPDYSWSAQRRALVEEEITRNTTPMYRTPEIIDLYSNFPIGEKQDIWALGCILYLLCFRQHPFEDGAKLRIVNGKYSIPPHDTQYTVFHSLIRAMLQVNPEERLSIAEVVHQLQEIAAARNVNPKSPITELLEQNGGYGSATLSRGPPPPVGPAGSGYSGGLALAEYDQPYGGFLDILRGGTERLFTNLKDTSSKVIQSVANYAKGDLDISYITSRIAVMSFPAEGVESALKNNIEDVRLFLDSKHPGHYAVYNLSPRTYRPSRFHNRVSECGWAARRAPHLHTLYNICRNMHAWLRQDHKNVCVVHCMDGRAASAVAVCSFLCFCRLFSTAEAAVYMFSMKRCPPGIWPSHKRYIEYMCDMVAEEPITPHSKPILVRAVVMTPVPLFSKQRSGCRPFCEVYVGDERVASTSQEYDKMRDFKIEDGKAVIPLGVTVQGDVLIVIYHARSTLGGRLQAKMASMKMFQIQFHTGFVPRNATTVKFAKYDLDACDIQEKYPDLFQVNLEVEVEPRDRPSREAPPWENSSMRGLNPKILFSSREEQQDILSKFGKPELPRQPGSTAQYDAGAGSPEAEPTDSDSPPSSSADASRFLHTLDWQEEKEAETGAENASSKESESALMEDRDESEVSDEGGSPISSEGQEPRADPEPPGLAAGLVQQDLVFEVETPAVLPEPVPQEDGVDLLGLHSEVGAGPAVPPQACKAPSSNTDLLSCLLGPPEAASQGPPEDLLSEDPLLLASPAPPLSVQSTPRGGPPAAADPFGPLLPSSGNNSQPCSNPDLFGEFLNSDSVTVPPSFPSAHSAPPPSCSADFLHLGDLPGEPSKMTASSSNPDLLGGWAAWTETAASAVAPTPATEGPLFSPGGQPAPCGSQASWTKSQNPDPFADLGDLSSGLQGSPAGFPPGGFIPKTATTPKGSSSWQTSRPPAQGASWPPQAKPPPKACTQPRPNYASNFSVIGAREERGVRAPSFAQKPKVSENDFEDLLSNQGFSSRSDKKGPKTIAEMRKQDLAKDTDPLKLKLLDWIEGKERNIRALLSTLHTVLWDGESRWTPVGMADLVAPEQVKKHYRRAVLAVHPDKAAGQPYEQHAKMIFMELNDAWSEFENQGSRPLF
From the text: as §1, §2

[5] = target: protein kinases (human kinome) (Homo sapiens, UniProt Q2M2I8); conditions: experiment wp088
protein kinases (human kinome) (Homo sapiens, UniProt Q2M2I8), sequence (Q2M2I8 whole entry): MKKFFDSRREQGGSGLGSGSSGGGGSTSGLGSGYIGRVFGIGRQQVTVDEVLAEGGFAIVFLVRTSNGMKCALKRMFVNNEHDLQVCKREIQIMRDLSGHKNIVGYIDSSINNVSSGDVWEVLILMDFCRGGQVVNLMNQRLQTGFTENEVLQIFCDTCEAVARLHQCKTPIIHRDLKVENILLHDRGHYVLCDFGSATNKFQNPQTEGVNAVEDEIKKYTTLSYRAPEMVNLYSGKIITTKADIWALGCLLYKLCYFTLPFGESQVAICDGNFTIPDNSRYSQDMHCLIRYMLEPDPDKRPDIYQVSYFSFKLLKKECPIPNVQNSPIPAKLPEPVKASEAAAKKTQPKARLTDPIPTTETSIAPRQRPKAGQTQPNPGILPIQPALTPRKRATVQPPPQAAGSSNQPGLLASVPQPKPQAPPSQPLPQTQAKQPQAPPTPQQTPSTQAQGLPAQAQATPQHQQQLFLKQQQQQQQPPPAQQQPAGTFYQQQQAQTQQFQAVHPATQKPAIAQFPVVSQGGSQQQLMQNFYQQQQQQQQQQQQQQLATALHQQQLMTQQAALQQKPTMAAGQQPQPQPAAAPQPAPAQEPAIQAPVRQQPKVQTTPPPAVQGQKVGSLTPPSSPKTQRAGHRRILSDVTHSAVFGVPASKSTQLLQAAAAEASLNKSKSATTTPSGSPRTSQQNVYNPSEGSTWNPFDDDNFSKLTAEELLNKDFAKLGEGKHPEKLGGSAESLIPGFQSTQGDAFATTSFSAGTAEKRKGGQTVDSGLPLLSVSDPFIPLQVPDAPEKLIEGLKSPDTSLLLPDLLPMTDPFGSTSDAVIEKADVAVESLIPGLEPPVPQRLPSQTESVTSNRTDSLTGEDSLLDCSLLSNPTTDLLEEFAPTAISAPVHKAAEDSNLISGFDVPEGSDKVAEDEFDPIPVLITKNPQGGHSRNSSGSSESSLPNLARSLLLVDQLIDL
From the text: as §1, §2

protein kinases (human kinome) (Homo sapiens, UniProt P30291), sequence (P30291 whole entry): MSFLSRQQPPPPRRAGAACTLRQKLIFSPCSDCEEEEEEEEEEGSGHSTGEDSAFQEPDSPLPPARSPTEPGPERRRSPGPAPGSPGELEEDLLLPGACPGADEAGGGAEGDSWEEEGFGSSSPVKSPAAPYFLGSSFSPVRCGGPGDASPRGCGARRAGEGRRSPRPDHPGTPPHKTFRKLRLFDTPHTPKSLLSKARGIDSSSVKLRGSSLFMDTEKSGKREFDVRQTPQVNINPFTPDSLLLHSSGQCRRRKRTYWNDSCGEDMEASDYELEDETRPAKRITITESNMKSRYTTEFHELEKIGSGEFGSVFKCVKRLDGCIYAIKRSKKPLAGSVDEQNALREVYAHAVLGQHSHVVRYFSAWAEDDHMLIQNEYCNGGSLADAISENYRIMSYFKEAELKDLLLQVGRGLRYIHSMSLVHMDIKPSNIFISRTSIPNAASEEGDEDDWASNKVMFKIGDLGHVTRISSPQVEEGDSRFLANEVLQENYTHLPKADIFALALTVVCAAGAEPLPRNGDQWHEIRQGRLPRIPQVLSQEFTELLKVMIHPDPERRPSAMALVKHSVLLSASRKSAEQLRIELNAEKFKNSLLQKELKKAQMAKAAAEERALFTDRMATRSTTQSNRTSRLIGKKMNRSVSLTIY

SMILES | kinases the bifunctional compound degrades [3] | Kinase hits [3] | Total no. kinase hits [3] | other results
CNC(=O)c1ccccc1Nc1cc(Nc2ccc(N3CCN(CCOCCOCCNC(=O)CNc4cccc5c4C(=O)N(C4CCC(=O)NC4=O)C5=O)CC3)cc2OC)ncc1C(F)(F)F (stereo not shown) [MFH.S.103.1] | – | – | – | logFC of WEE1 [1]: −0.9694
Cc1cc(Nc2ncc(Cl)c(Nc3ccccc3S(=O)(=O)C(C)C)n2)c(OC(C)C)cc1C1CCN(CCOCCOCCNC(=O)CNc2cccc3c2C(=O)N(C2CCC(=O)NC2=O)C3=O)CC1 (stereo not shown) [TL13.112] | – | – | – | logFC of FER (P16591-1) ([2]; Experiment wp012, down): −0.5247; logFC PTK2 (Q05397-5) ([3]; Experiment wp012, direction of change down): −0.6217; logFC RPS6KA1 ([3]; RPS6KA1 (Q15418-2), experiment wp012): −0.7875
Cc1cc(Nc2ncc(Cl)c(Nc3ccccc3S(=O)(=O)C(C)C)n2)c(OC(C)C)cc1C1CCN(CCOCCOCCNC(=O)CNc2cccc3c2C(=O)N(C2CCC(=O)NC2=O)C3=O)CC1 (stereo not shown) [TI13.112] | – | – | – | logFC of FER ([2]; FER P16591-1, experiment wp012): −0.5247; logFC PTK2 ([3]; Accession Q05397-5, experiment wp012, direction down): −0.6217; logFC RPS6KA1 (Q15418-2) ([3]; RPS6KA1 protein abundance, degrader vs DMSO, experiment wp012): −0.7875
O=C1CCC(N2C(=O)c3cccc(NCCCCCCCCN4CCC(NC(=O)c5[nH]ncc5NC(=O)c5c(Cl)cccc5Cl)CC4)c3C2=O)C(=O)N1 (stereo not shown) [MFH-5-126-1] | AURKA, BUB1, BUB1B, CDK13, CDK14, CDK17, CDK4, CDK9, CHEK1, CLK1, CSNK1A1, CSNK1D, DAPK1, ERN1, GSK3A, GSK3B, MAP3K1, NUAK1, PIK3CG, PIM2, PLK1, RIOK2, STK17A, STK7B, TTK, UHMK1, and WEE1 | AURKA, BUB1, BUB1B, CDK13, CDK14, CDK17, CDK4, CDK9, CHEK1, CLK1, CSNK1A1, CSNK1D, DAPK1, ERN1, GSK3A, GSK3B, MAP3K1, NUAK1, PIK3CG, PIM2, PLK1, RIOK2, STK17A, STK17B, TTK, UHMK1, WEE1 | 27 | –
Cc1cnc(Nc2ccc(N3CCN(CCCCCCC(=O)N[C@H](C(=O)N4C[C@H](O)C[C@H]4C(=O)N[C@@H](C)c4ccc(-c5scnc5C)cc4)C(C)(C)C)CC3)cc2)nc1Nc1cccc(S(=O)(=O)NC(C)(C)C)c1 [JWG-123] | – | AAK1, CDK16, WEE1, GAK, MARK4, NEK9, RPS6KB1, SIK2, SIK3, SNRK, STKI7A, STK17B | 12 | –
CNC(=O)c1ccccc1Nc1cc(Nc2ccc(N3CCN(CCOCCOCCNC(=O)CNc4cccc5c4C(=O)N(C4CCC(=O)NC4=O)C5=O)CC3)cc2OC)ncc1C(F)(F)F (stereo not shown) [MFH-5-103-1] | AURKA, CDK1O, CDK7, MAPK7, PTK2B, RPS6KA1, RPS6KA3, STK33, and WEE1 | AURKA, CDK10, CDK7, MAPK7, PTK2B, RPS6KA1, RPS6KA3, STK33, WEE1 | 9 | –
Cc1cnc(Nc2ccc(N3CCN(CCOCCOCCC(=O)N[C@H](C(=O)N4C[C@H](O)C[C@H]4C(=O)N[C@@H](C)c4ccc(-c5scnc5C)cc4)C(C)(C)C)CC3)cc2)nc1Nc1cccc(S(=O)(=O)NC(C)(C)C)c1 [JWG.122] | – | – | – | logFC of GAK (O14976) ([4]; Experiment wp088, down): −0.3586; logFC GAK ([4]; GAK (O14976), direction down, experiment wp088): −0.3586; logFC AAK1 ([5]; AAK1 (Q2M218-1), down): −0.6335; logFC AAK1 ([5]; AAK1, accession Q2M218-1, direction of change down): −0.6335
CNC(=O)c1ccccc1Nc1cc(Nc2ccc(N3CCN(CCCCCCCCNc4cccc5c4C(=O)N(C4CCC(=O)NC4=O)C5=O)CC3)cc2OC)ncc1C(F)(F)F (stereo not shown) [MFH-5-116-1] | AURKA, NUAK1, PTK2B, RPS6KA1, RPS6KA3, STK33, and WEE1 | AURKA, NUAK1, PTK2B, KPS6KA1, RPS6KA3, STK33, WEE1 | 7 | –
CC(=O)c1c(C)c2cnc(Nc3ccc(N4CCN(CC(=O)NCCOCCOCCOCCNc5cccc6c5C(=O)N(C5CCC(=O)NC5=O)C6=O)CC4)cn3)nc2n(C2CCCC2)c1=O (stereo not shown) [YKL-06-102] | – | CDK4, CDK6, WEE1 | 3 | –
Cc1cc(Nc2ncc(Br)c(Nc3cccc(F)c3C(N)=O)n2)ccc1S(=O)(=O)NCCOCCOCCOCCOCCNc1cccc2c1C(=O)N(C1CCC(=O)NC1=O)C2=O (stereo not shown) [TMX-02-174] | – | AAK1, AURKA, AURKB, CDK1, CDK12, CDK16, CDK17, CDK2, CDK5, CDK7, CDK9, CLK1, FER, GSK3A, GSK3B, IRAK3, MAP3K11, MAPK8, MAPK9, NEK1, NEK3, NEK4, NEK9, NUAK1, PRKAA1, PRKAA2, PTK2, PTK2B, RPS6KA1, RPS6KA3, RPS6KA4, STK33, STK35, STK38, TBK1, TEC, TTK, WEE1 | 37 | –
Nc1ncnc2c1c(-c1ccc(Oc3ccccc3)cc1)nn2[C@H]1CC[C@H](N2CCN(CCCCCCNC(=O)COc3cccc4c3C(=O)N(C3CCC(=O)NC3=O)C4=O)CC2)CC1 (stereo partly shown) [SB1-G-200] | ABL1, ABL2, BLK, CSNK1E. CSK, FYN, LATS1, LCK, LIMK1, MAP2K5, and SRC | ABL1, ABL2, BLK, CSNK1E, CSK, FYN, LATS1, LCK, LIMK1, MAP2K5, SRC | 11 | –
CC(C)(C)c1nc(-c2cccc(NS(=O)(=O)c3c(F)cccc3F)c2F)c(-c2ccnc(NCCOCCNC(=O)CCOCCOCCNc3cccc4c3CN(C3CCC(=O)NC3=O)C4=O)n2)s1 (stereo not shown) [DD-03-107] | BCKDK, COQ8A, LIMK1, PDK1, PDK2, and PDK3 | BCKDK, COQ8A, LIMK1, PDK1, PDK2, PDK3 | 6 | –
Nc1ncnc2c1c(-c1ccc(Oc3ccccc3)cc1)nn2[C@@H]1CCCN(C(=O)CCCN2CCN(CCNC(=O)CCOCCOCCNc3cccc4c3C(=O)N(C3CCC(=O)NC3=O)C4=O)CC2)C1 (stereo partly shown) [DD-03-119] | ABL2, BLK, CSK, FYN, LCK, SRC, and TEC | ABL2, BLK, CSK, FYN, LCK, SRC, TEC | 3 | –
CC(=O)c1c(C)c2cnc(Nc3ccc(N4CCN(CCCCNC(=O)CNc5cccc6c5C(=O)N(C5CCC(=O)NC5=O)C6=O)CC4)cn3)nc2n(C2CCCC2)c1=O (stereo not shown) [BSJ-01-147] | – | CDK4, CDK6, WEE1 | 3 | –
Cc1ncsc1-c1ccc([C@H](C)NC(=O)[C@@H]2C[C@@H](O)CN2C(=O)[C@@H](NC(=O)CCCCCCc2ccc(Nc3ncc4c(n3)-c3ccccc3NC(=O)N4)cc2)C(C)(C)C)cc1 [JWG-148] | ABL2, EPHB2, SIK2, and TYK2 | ABL2, EPHB2, SIK2, TYK2 | 4 | –
Cc1c(NC(=O)c2ccc(C(C)(C)C)cc2)cccc1-c1cn(C)c(=O)c(Nc2ccc(C(=O)N3CCN(CCCCCCNC(=O)CNc4cccc5c4C(=O)N(C4CCC(=O)NC4=O)C5=O)CC3)cc2)n1 (stereo not shown) [DD.03.171] | – | – | – | logFC ([3]; BTK (Q06187-2), experiment wp055): −3.077; logFC of BTK (Q06187-2) ([3]; Experiment wp055): −3.077
Cc1ncsc1-c1ccc([C@H](C)NC(=O)[C@@H]2C[C@@H](O)CN2C(=O)[C@@H](NC(=O)CCCCCN2CCc3cc(Nc4ncc(C5CC5)c(NCCCNC(=O)C5CCC5)n4)ccc3C2)C(C)(C)C)cc1 [BSJ-05-026] | – | AAK1, GAK, MARK2, MARK3, MARK4, RPS6KB1, SIK2, SIK3, SNRK, STKI7A, STKI7B, ULK1, WEE1 | 13 | –
COc1cc(N2CCN(CCOCCOCCC(=O)N[C@H](C(=O)N3C[C@H](O)C[C@H]3C(=O)N[C@@H](C)c3ccc(-c4scnc4C)cc3)C(C)(C)C)CC2)ccc1Nc1ncc2c(n1)N(C)c1ccccc1C(=O)N2CC(F)(F)F [FMF-03-178-1] | – | BLK, CSK | 2 | –
